The values below come from patent US20240279613A1, “METHOD OF PRODUCING ENTEROENDOCRINE CELL, ENTEROENDOCRINE CELL DERIVED FROM PLURIPOTENT STEM CELL, CULTURE MEDIUM OR CULTURE MEDIUM KIT, AND USE THEREOF” (FUJIFILM Corporation, priority 2021, published 2024).

For assay [1], the system named is Human iPS cell-derived intestinal epithelial cells F-hiSIEC. Nature of the assay: Gene expression of EEC markers in F-hiSIEC cells cultured with LY411575 or DAPT added (culture media of Table 2, real-time PCR, Day 9). Format: cell-based. From the text:
(§1) Human iPS cell-derived intestinal epithelial cells (including intestinal stem cells, LGR5+ cells) F-hiSIEC™ (FUJIFILM Corporation) were thawed on the day 0 and seeded at 1.0×10^6 cells/well on a cell culture insert coated with Matrigel™ (Corning Incorporated) by using F-hiSIEC™ Seeding Medium (FUJIFILM Corporation), and then from the next day, the culture medium was exchanged every other day with each culture medium (culture medium compositions 7 to 13) in Table 2. Coating, seeding, and culture medium exchange were carried out according to the F-hiSIEC instruction manual to obtain a cell sheet. The total RNA was extracted from the cells on the Day 9. For RNA extraction, the cells were lysed with Qiazol (QIAGEN), 20% of chloroform was added thereto, mixed, and centrifuged at 12,000 g for 10 minutes to obtain a solution, and the supernatant of the solution was recovered. Total RNA was extracted from the supernatant according to the manual using an RNeasy mini kit (QIAGEN). cDNA was synthesized from the total RNA using a High Capacity RNA-to-cDNA kit (Applied Biosystems) according to the manual. The obtained cDNA was subjected to the measurement of the gene expression level by using a ViiA7 real-time PCR system (Applied Biosystems) with a Taqman Gene Expression Assay system and a Taqman Gene Expression Master Mix (Applied Biosystems). The Taqman Assay ID used were as follows: 18s: 03003631_g1. CHGA: Hs00900370_m1. PYY: Hs00373890_g1, and NEUROG3: Hs01875204_s1.
(§2) Gene expression levels for comparison are indicated in terms of relative value in a case where the expression in the control group cultured in the F-hiSIEC Culture Medium is corrected with the expression level of the internal standard gene 18S according to the […] and then is set to 1.

The test system is the same in assay [2]. In words: Gene expression of EEC markers in F-hiSIEC cells cultured in culture media of Table 1 (real-time PCR, Day 9). It is filed as cell-based. Particulars: LY411575 (composition 4, 1 μmol/L, no EGF) compared with DAPT (composition 6, 10 μmol/L).
Description: as §1, with “compositions 1” for “compositions 7”, “to 6)” for “to 13)”, “Table 1.” for “Table 2.”, “18s: 03003631_g1,” for “18s: 03003631_g1.”, “CHGA: Hs00900370_m1, TPH1: Hs00188220_m1,” for “CHGA: Hs00900370_m1.”, “and REG4: Hs00230746_m1.” for “and NEUROG3: Hs01875204_s1.”
as §2

Setting [3] is: LY411575 2 μmol/L addition group (culture medium composition 11), among compositions 7 to 13.
The mark [4] stands for this setting: LY411575 addition groups (0.5 to 2.0 μmol/L) compared with DAPT addition groups (5 to 10 μmol/L), no EGF, FIG. 2.

Take `C[C@H](NC(=O)[C@@H](O)c1cc(F)cc(F)c1)C(=O)N[C@@H]1C(=O)N(C)c2ccccc2-c2ccccc21` [LY411575]: in assay [1] (setting [3]), the “expression level of CHGA” value is “highest”, the “expression level of NEUROG3” value is “highest” and the “expression level of PYY” value is “highest”. Also, in assay [1] (setting [4]), the “expression of CHGA” value was “high” and the “expression of PYY” value is recorded as “remarkably high”. In assay [2], the “expression of CHGA” value was “remarkably high”, the “expression of PYY” value is “remarkably high”, the “expression of Reg4” value is on record as “remarkably high” and the “expression of TPH1” value was “remarkably high”.
